Source: paper PMC11019538, “Biophysics-Guided Lead Discovery of HBV Capsid Assembly Modifiers” (ACS Infectious Diseases, 2024)

System: HBV DNA replication in HepAD38 cells
Assay: HBV DNA replication inhibition assay in HepAD38 cells (7 days, PCR of supernatant DNA)
Assay type: cell-based, hepatitis B virus
Conditions: Hepatitis B virus; HepAD38 cells, 10 μM, trial 1; read-out: % HBV DNA Inh. at 10 μM, trial 1
Protocol: HepAD38 cells were seeded at 50,000 cells/well in collagen-coated 96-well plates. […] The experiment lasted 7 days. On day 7, total DNA was purified from the supernatant using a commercially available kit (DNeasy 96 Blood & Tissue kit, Qiagen). The HBV DNA was amplified in a polymerase chain reaction assay using LightCycler 480 II (Roche), as previously described.[63] All samples were tested in duplicate.
Work on `NCCCC(=O)NCc1nc(-c2cccc(F)c2)c(-c2ccccn2)[nH]1` [GT-45] yielded an inhibition at 10 µM of 50%. In the case of `O=C(OCc1ccc(-c2cnc3ccccc3n2)cc1)c1cccs1` [GT-32], the inhibition at 10 µM is reported as 48%.

Same assay, conditions: Hepatitis B virus; HepAD38 cells, 10 μM, trial 2; read-out: % HBV DNA Inh. at 10 μM, trial 2
Work on `NCCCC(=O)NCc1nc(-c2cccc(F)c2)c(-c2ccccn2)[nH]1` [GT-45] yielded an inhibition at 10 µM of 49%. In the case of `O=C(OCc1ccc(-c2cnc3ccccc3n2)cc1)c1cccs1` [GT-32], the inhibition at 10 µM is reported as < 1%.

Same assay, conditions: Hepatitis B virus; HepAD38 cells, 10 µM, trial 3; read-out: % HBV DNA Inh. at 10 µM, trial 3
For `NCCCC(=O)NCc1nc(-c2cccc(F)c2)c(-c2ccccn2)[nH]1` [GT-45], the inhibition at 10 µM was < 1%. In the case of `O=C(OCc1ccc(-c2cnc3ccccc3n2)cc1)c1cccs1` [GT-32], the inhibition at 10 µM is reported as < 1%.

Same assay, conditions: Hepatitis B virus; HepAD38 cells, 10 µM, trial 4; read-out: % HBV DNA Inh. at 10 µM, trial 4
In the case of `NCCCC(=O)NCc1nc(-c2cccc(F)c2)c(-c2ccccn2)[nH]1` [GT-45], the inhibition at 10 µM is reported as < 1%. For `O=C(OCc1ccc(-c2cnc3ccccc3n2)cc1)c1cccs1` [GT-32], the inhibition at 10 µM was < 1%.

Same assay, conditions: Hepatitis B virus; HepAD38 cells, 10 μM; read-out: % inhibition in at least one of the trials
With `NCCCC(=O)NCc1nc(-c2cccc(F)c2)c(-c2ccccn2)[nH]1` [GT-45] the inhibition at 10 µM was > 50%. For `O=C(OCc1ccc(-c2cnc3ccccc3n2)cc1)c1cccs1` [GT-32], the inhibition at 10 µM was > 50%.

Same assay, conditions: Hepatitis B virus; HepAD38 cells, trial 1; read-out: EC50, trial 1
With `NCCCC(=O)NCc1nc(-c2cccc(F)c2)c(-c2ccccn2)[nH]1` [GT-45] the EC50 was ≥ 10 µM. In the case of `O=C(OCc1ccc(-c2cnc3ccccc3n2)cc1)c1cccs1` [GT-32], the EC50 is reported as ≥ 10 µM.

Same assay, conditions: Hepatitis B virus; HepAD38 cells, trial 2; read-out: EC50, trial 2
With `NCCCC(=O)NCc1nc(-c2cccc(F)c2)c(-c2ccccn2)[nH]1` [GT-45] the EC50 was ≥ 10 µM. For `O=C(OCc1ccc(-c2cnc3ccccc3n2)cc1)c1cccs1` [GT-32], the EC50 was > 10 µM.

Same assay, conditions: Hepatitis B virus; HepAD38 cells, trial 3; read-out: EC50, trial 3
With `NCCCC(=O)NCc1nc(-c2cccc(F)c2)c(-c2ccccn2)[nH]1` [GT-45] the EC50 was > 10 µM. In the case of `O=C(OCc1ccc(-c2cnc3ccccc3n2)cc1)c1cccs1` [GT-32], the EC50 is reported as > 10 µM.

Same assay, conditions: Hepatitis B virus; HepAD38 cells, trial 4; read-out: EC50, trial 4
With `NCCCC(=O)NCc1nc(-c2cccc(F)c2)c(-c2ccccn2)[nH]1` [GT-45] the EC50 was > 100 µM. For `O=C(OCc1ccc(-c2cnc3ccccc3n2)cc1)c1cccs1` [GT-32], the EC50 was > 100 µM.

System: not listed separately
Assay: MTT cytotoxicity, Vero cells
Assay type: cell-based, African green monkey
Conditions: African green monkey, Vero cells (kidney)
Protocol: (§1) Human peripheral blood mononuclear (PBM), T lymphoblast CEM-CCRF (herein referred to as CEM cells), African green monkey kidney (Vero), or human liver carcinoma (HepG2) cells were tested via MTT assay using the CellTiter 96 Non-Radioactive Cell Proliferation (Promega) kit as previously described.[63]
With `NCCCC(=O)NCc1nc(-c2cccc(F)c2)c(-c2ccccn2)[nH]1` [GT-45] the CC50 was 66 µM. `O=C(OCc1ccc(-c2cnc3ccccc3n2)cc1)c1cccs1` [GT-32] gave a CC50 of 44 µM.

System: T lymphoblast CEM-CCRF (CEM) cells
Assay: MTT cytotoxicity, CEM cells
Assay type: cell-based, human
Conditions: 100 µM
Protocol: as §1
In the case of `NCCCC(=O)NCc1nc(-c2cccc(F)c2)c(-c2ccccn2)[nH]1` [GT-45], the “% cytotoxicity at 100 µM (MTT), CEM cells” value is reported as 36%.

System: not listed separately
Assay: MTT cytotoxicity, CEM cells
Assay type: cell-based, human
Conditions: human, T lymphoblast CEM-CCRF (CEM) cells
Protocol: as §1
In the case of `NCCCC(=O)NCc1nc(-c2cccc(F)c2)c(-c2ccccn2)[nH]1` [GT-45], the CC50 is reported as > 100 µM. With `O=C(OCc1ccc(-c2cnc3ccccc3n2)cc1)c1cccs1` [GT-32] the CC50 was 52 µM.

Target: T1, Cp149 capsid assembly (Hepatitis B virus genotype D subtype adw, UniProt P03147)
T1 construct: The N-terminal domain of Cp (Cp149) is sufficient for forming regular capsids; made in house; host or cells: E. coli BL21(DE3)
T1 sequence (P03147 1-149): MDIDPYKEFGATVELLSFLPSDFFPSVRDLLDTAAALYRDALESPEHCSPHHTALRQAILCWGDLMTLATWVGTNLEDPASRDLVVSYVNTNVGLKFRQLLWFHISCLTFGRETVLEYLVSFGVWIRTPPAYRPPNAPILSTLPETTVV
Assay: Transmission electron microscopy of assembled Cp149 products
Assay type: biochemical
Conditions: 20 μM Cp149, 40 μM compound
Protocol: The assembled samples of Cp149 were prepared as described in the Size Exclusion Chromatography section. Eight μL of each sample was added onto the 300 mesh Lacey Formvar carbon–copper grids (Ted Pella, Inc.) and allowed to sit for 1.5 min. The grid was then rinsed in 500 mL of deionized water for 10 s twice to rinse off the extra buffer on the grid. After drying, the sample was stained with 8 μL of 2% uranyl acetate for 1 min. After removal and drying of the uranyl acetate solution, the sample was imaged with a Hitachi HT7700 electron microscope at an accelerating voltage of 120 kV, at the IMat Materials Characterization Facility of Georgia Institute of Technology. The images underwent processing using ImageJ software. Initially, to minimize noise, a Gaussian blur filter was applied. These images were then converted into an 8 bit binary format for edge detection. ImageJ identified particles ranging in size from 800 to 2000 pixels. An example of a processed image can be seen in Figure S14. The circularity of each particle was calculated using the formula circularity = 4π × area × perimeter^–2. […] A total of four images, each containing a minimum of 100 capsids, were analyzed to determine the proportion of the abnormal capsids. The entire experiment was duplicated, and the outcomes from both sets were then averaged.
With `NCCCC(=O)NCc1nc(-c2cccc(F)c2)c(-c2ccccn2)[nH]1` [GT-45] the “effect on capsid morphology (TEM)” value was “induced misdirected products”.

Same assay, conditions: 20 μM Cp149, 40 μM compound, 500 mM NaCl
With `NCCCC(=O)NCc1nc(-c2cccc(F)c2)c(-c2ccccn2)[nH]1` [GT-45] the “% abnormal capsids, Trial 1” value was 40% and the “% abnormal capsids, Trial 2” value was 35%. For `O=C(OCc1ccc(-c2cnc3ccccc3n2)cc1)c1cccs1` [GT-32], the “% abnormal capsids, Trial 1” value was 76% and the “% abnormal capsids, Trial 2” value was 85%.

Same assay, conditions: average of two trials
In the case of `NCCCC(=O)NCc1nc(-c2cccc(F)c2)c(-c2ccccn2)[nH]1` [GT-45], the “% abnormal capsids, Average” value is reported as 38%.

Target: T2, Cp149 (Hepatitis B virus genotype D subtype adw, UniProt P03147)
T2 construct: The N-terminal domain of Cp (Cp149) is sufficient for forming regular capsids; made in house; host or cells: E. coli BL21(DE3)
T2 sequence (P03147 1-149): as above
Assay: Tryptophan fluorescence titration
Assay type: binding
Conditions: 20 μM Cp149, compound up to 100 μM
Protocol: Each of the compounds was titrated into 100 μL of the protein solution to final concentrations of 0, 5, 10, 20, 50, and 100 μM in a clear bottom 96-well plate. […] Tryptophan fluorescence levels were measured by exciting the samples at 285 nm and measuring the emission at 340 nm with the Varioskan Flash (Thermo Fisher) plate reader. […] Fluorescence quenching was calculated by taking the difference of net fluorescence levels of each concentration and of the 0 μM sample. All the samples were run in triplicate, and the results were averaged. The dissociation constants (KD) were fitted by the one-site-specific binding model of GraphPad.[45]
In the case of `NCCCC(=O)NCc1nc(-c2cccc(F)c2)c(-c2ccccn2)[nH]1` [GT-45], the tryptophan fluorescence quenching is reported as “reproducible but modest fluorescence quenching”. In the case of `O=C(OCc1ccc(-c2cnc3ccccc3n2)cc1)c1cccs1` [GT-32], the tryptophan fluorescence quenching is reported as “moderate fluorescence quenching”.

Same assay, conditions: 20 μM Cp149, single-site fit; read-out: dissociation constant (KD), estimated
`O=C(OCc1ccc(-c2cnc3ccccc3n2)cc1)c1cccs1` [GT-32] gave a Kd of 124 µM.

Same assay, conditions: one site specific binding model, Table S7; read-out: KD
`O=C(OCc1ccc(-c2cnc3ccccc3n2)cc1)c1cccs1` [GT-32] gave a Kd of 124 µM.

System: not listed separately
Assay: MTT cytotoxicity, HepG2 cells
Assay type: cell-based, human
Conditions: human, HepG2 cells (liver carcinoma)
Protocol: as §1
In the case of `NCCCC(=O)NCc1nc(-c2cccc(F)c2)c(-c2ccccn2)[nH]1` [GT-45], the CC50 is reported as > 100 µM. Work on `O=C(OCc1ccc(-c2cnc3ccccc3n2)cc1)c1cccs1` [GT-32] yielded a CC50 of 59 µM.

System: human liver carcinoma (HepG2) cells
Assay: MTT cytotoxicity, HepG2 cells
Assay type: cell-based
Conditions: HepG2 cells, 100 µM
Protocol: as §1
In the case of `NCCCC(=O)NCc1nc(-c2cccc(F)c2)c(-c2ccccn2)[nH]1` [GT-45], the “percent cytotoxicity (MTT) at 100 µM, HepG2” value is reported as 41%.

System: not listed separately
Assay: MTT cytotoxicity, PBM cells
Assay type: cell-based, human
Conditions: human, peripheral blood mononuclear (PBM) cells
Protocol: as §1
In the case of `NCCCC(=O)NCc1nc(-c2cccc(F)c2)c(-c2ccccn2)[nH]1` [GT-45], the CC50 is reported as > 100 µM. `O=C(OCc1ccc(-c2cnc3ccccc3n2)cc1)c1cccs1` [GT-32] gave a CC50 of 85 µM.

System: human peripheral blood mononuclear (PBM) cells
Assay: MTT cytotoxicity, PBM cells
Assay type: cell-based
Conditions: 100 µM
Protocol: as §1
With `NCCCC(=O)NCc1nc(-c2cccc(F)c2)c(-c2ccccn2)[nH]1` [GT-45] the “percent cytotoxicity (cell growth inhibition) at 100 µM” value was 41%.
